From patent publication US20140322278A1, “Modulation of Tissue Transglutaminase Activation in Disease” (The Board of Trustees of the Leland Stanford Junior …, priority 2011, published 2014)

T1: human thioredoxin (Homo sapiens, UniProt P10599)
T1 construct: made in house; host or cells: E. coli
T1 sequence (P10599 1-105): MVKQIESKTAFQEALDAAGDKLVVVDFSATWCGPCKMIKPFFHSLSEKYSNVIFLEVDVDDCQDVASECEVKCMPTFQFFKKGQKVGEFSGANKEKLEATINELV

T2: Trx (Homo sapiens, UniProt P10599)
T2 construct: made in house; host or cells: E. coli (Trx)
T2 sequence (P10599 1-105): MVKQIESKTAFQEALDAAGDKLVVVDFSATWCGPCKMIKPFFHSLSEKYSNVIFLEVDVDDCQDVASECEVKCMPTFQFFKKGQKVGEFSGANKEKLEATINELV

B1: recombinant human Trx: reduced human thioredoxin, overexpressed in and purified from recombinant E. coli (protein, UniProt P10599 2-105, looked up)
Thioredoxin: VKQIESKTAFQEALDAAGDKLVVVDFSATWCGPCKMIKPFFHSLSEKYSNVIFLEVDVDDCQDVASECEVKCMPTFQFFKKGQKVGEFSGANKEKLEATINELV
modifications: reduced
notes: reduced human thioredoxin, overexpressed in and purified from recombinant E. coli

Columns and labels:
human thioredoxin = target: T1, human thioredoxin; experiment: Inhibition of human thioredoxin by disulfide analogs of PX-12 (kinh/Ki); type: biochemical
[1] = Reactivity of disulfide inhibitors towards dithiothreitol
[2] = system: TG2 activation in T84 monolayers; experiment: Thioredoxin-induced TG2 activation in T84 monolayers, 5BP incorporation ELISA; type: cell-based, human
Procedure: (§1) FIG. 7. Dose dependence of TG2 activation in response to recombinant human thioredoxin treatments of T84 and WI-38 monolayers measured in a quantitative enzyme linked immunosorbent type assay. Cellular monolayers were treated for 3 hrs at 0-10 μM thioredoxin with or without TG2 inhibition using 25 μM ERW1041E or with or without using 0-50 μM thioredoxin inhibitor PX-12. TG2 activation was quantified by the amount of 5BP crosslinked to native proteins in the extracellular matrix of cultured monolayers as measured by tetramethylbenzidine turnover via streptavidin-HRP labeling. (A) and (B) Illustrate the dependence of 5BP incorporation on thioredoxin exposure concentration in T84 and WI-38 cells, respectively. […] (C) and (D) Illustrate the dependence of 5BP incorporation on the ability of thioredoxin to activate TG2. TG2 activation was highest for control experiments with 0 μM PX-12. The amount of PX-12 required to reduce the 5BP incorporation in half at saturating concentrations of 3 μM thioredoxin in T84 and WI-38 cultures was 11 μM and 5 μM PX-12, respectively. […] Data reported as mean+/−standard deviation.
(§2) To test whether recombinant human thioredoxin could directly activate TG2 in cell culture, we used T84 and WI-38 monolayers in similar assays as described herein. T84 and WI-38 cells were grown into mature monolayers at which point varying amounts of pre-reduced thioredoxin were added to the culture medium along with 5BP and/or small molecule inhibitors, such as the TG2 inhibitor, ERW1041E, or the thioredoxin inhibitor, PX-12. 5BP incorporated into the extracellular matrix of cultured monolayers via activated TG2 was then quantified.

[3] = system: TG2 activation in WI-38 monolayers; experiment: Thioredoxin-induced TG2 activation in WI-38 monolayers, 5BP incorporation ELISA; type: cell-based, human
Procedure: as §1, §2

Trx = target: T2, Trx; experiment: Cell-free assay for Trx-mediated activation of oxidized TG2; type: biochemical; conditions: dose-dependent; 100 μM PX-12
Procedure: (§3) To test our hypothesis, we measured the kinetics of Trx-mediated activation of oxidized TG2. Reduced forms of Trx from E. coli and human were prepared by overexpression in and purification from recombinant E. coli. Dithiothreitol (DTT) was used as a reference small molecule reducing agent. […] We therefore quantified the specificity of human Trx for human oxidized TG2 by measuring the Michaelis-Menten parameters for Trx-mediated reduction of oxidized TG2. Insulin, a well-characterized extracellular substrate of Trx, was used as a reference, and human thioredoxin reductase was used as a catalyst to achieve turnover under steady-state conditions. […] Based on these parameters, one can estimate that as little as 2.5 nM Trx in the extracellular matrix should be able to activate 10% of the local oxidized TG2 within 30 min.
The small molecule PX-12 (1,1-methylpropyl 2-imidazolyl disulfide) inhibits Trx by oxidizing its active site Cys.

[4] = cited from earlier work
Insulin = experiment: Kinetics of Trx-mediated reduction of insulin (reference substrate); type: biochemical; conditions: human thioredoxin reductase as catalyst, steady state
Procedure: as §3

[5] = Homo sapiens, saturating 3 μM thioredoxin, read-out: amount of PX-12 required to reduce the 5BP incorporation in half

Molecule	Trx kinh/Ki (human thioredoxin; human thioredoxin, bimolecular parameter estimating potency) [µM⁻¹ min⁻¹]	Trx/DTT (human thioredoxin; ratio of reactivity towards Trx relative to DTT (selectivity))	DTT k [1] [µM⁻¹ min⁻¹]	IC50 [2, 5] [µM]	5BP incorporation in response to thioredoxin ([2]; PX-12 0-50 μM)	IC50 [3, 5] [µM]	5BP incorporation in response to thioredoxin ([3]; PX-12 0-50 μM)	Trx-mediated activation of oxidized TG2 (Trx)	adverse effects in humans ([4]; high doses administered to humans)	toxicity due to the 2-butanethiol leaving group ([4]; previous human clinical studies)	Km (Insulin) [µM]
CCC(C)SSc1ncc[nH]1 (centres unmarked) [compound 1, 1-methylpropyl 2-imidazolyl disulfide]	0.16	15	0.0108	11	quantitatively reduced	5	quantitatively reduced	complete inactivation	without any serious adverse effects	dose-limiting toxicity	
B1											30
